Reference: US8071367B2, “Selecting, culturing and creating lineage committed hematopoietic stem cells” (Commonwealth Scientific and Industrial Research Organisation, priority 2005, dated 2011)
Where no end group is shown, it is not given here.

System: CB CD34+CD38− HSC
Assay: In vitro proliferation of sorted cord blood CD34+CD38− HSC with 6 growth factor stimulation, cells counted after 6 days
Format: cell-based, human
Conditions: 300 per well, Cellgro supplemented with 6 factors, after 6 d, versus 6 factors alone
Protocol: Human cord blood cells were sorted by FACS and plated into cell culture wells (300 cells/well) in the presence of Cellgro supplemented with 6 growth factors G-CSF, […], FL-T3 ligand, (FLT3-L), MGDF (all 100 ng/ml), IL-6 and IL-3 (both 10 ng/ml). In addition, α9β1 antibody (Chemicon), thrombin-cleaved bovine Opn (R & D Systems, Minneapolis, Minn., USA), or Opn inhibiting peptide [SVVYGLR-NH2] (Auspep) (SEQ ID NO:1) were added. All cells were cultured at 37° C. in 5% O2, 10% CO2 and 85% N2. Cells were grown for 6 days prior to counting.
Thrombin-cleaved Opn was prepared by incubating 24 μg bovine Opn in 20 mM Tris-HCl (pH 7.6), 80 mM NaCl, 2 mM CaCl2 and 0.1 units of thrombin (CSL, Parkville, Australia), for 10 min at 37° C.

Substance: SVVYGLR-NH2 [osteopontin peptide]
- cell proliferation: significant inhibition of cell proliferation
